Molecular target: T1, human TGR5 (Homo sapiens, UniProt Q8TDU6)
T1 construct: expressed in transfected cells; host or cells: HEK293
T1 sequence (Q8TDU6 1-330): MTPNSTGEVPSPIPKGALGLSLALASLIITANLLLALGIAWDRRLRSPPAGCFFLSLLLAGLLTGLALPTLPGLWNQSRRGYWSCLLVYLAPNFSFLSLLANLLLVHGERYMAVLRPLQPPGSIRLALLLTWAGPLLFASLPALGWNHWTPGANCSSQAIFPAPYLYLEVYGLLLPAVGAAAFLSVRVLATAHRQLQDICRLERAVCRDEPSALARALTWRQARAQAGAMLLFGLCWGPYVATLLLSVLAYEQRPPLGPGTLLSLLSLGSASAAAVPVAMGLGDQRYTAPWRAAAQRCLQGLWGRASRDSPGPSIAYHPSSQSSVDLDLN
Experiment: Cell-based TGR5 assay (cAMP generation, HTRF)
Conditions: HEK293 cells stably transfected with human TGR5; cAMP by HTRF; 30 minutes at 37° C.; read-out: pEC50 Human TGR5 (converted)
Experimental: A primary cell-based assay utilized HEK293 cells stably transfected with a gene encoding human TGR5. Cells were treated with candidate TGR5 activators and assessed for increased intercellular levels of cAMP.
TGR5-mediated cAMP generation was measured using a homogeneous time resolved fluorescence (HTRF) detection method (Cisbio). Test compounds were dissolved in DMSO to a final concentration of 10 mM. Serial 3-fold dilutions of the stock solution were made in DMSO, and these solutions were diluted 100-fold into Hanks Balanced Salt Solution supplemented with 10 mM HEPES pH 7.4, 0.003% Tween 20 and 0.5 mM isobutyl methylxanthine. Five microliters of diluted test compounds were added to wells of a black 384 well plate.
Cells grown overnight at 37° C./5% CO2 were harvested and resuspended in Hanks Balanced Salt Solution containing 10 mM HEPES to a concentration of […]. Five microliters (2500 cells) were dispensed into each well of the 384 well plate containing compound dilutions and incubated at 37° C. for 30 minutes. Each compound was tested in duplicate at 12 concentrations ranging from 0.05 nM to 10 μM.
Following incubation with test compounds, cAMP was detected through the successive addition of 5 μL each of cAMP labeled with the modified allophyocyanin dye d2 (cAMP-d2) and cryptate-labeled anti-cAMP in lysis buffer, and reading HTRF per the manufacturer's instructions.
A standard curve was used to convert the raw HTRF data into [cAMP]. The concentration of cAMP was plotted against log [test compound] and the resulting curves were fit to a 3-parameter logistical equation using GraphPad Prism to determine pEC50 (the negative log of the EC50) and the magnitude of the response.

First: Clc1ccc(Cl)c(COC2(c3cnccc3-c3ccccc3Cl)CC2)c1 [Compound I-768, 4-(2-chlorophenyl)-3-(1-((2,5-dichlorobenzyl)oxy)cyclopropyl)pyridine]
Second: FC(F)(F)c1ccc(Cl)c(COC2(c3cnccc3-c3ccccc3OC3CC3)CC2)c1 [Compound I-52, 3-(1-{[2-chloro-5-(trifluoromethyl)phenyl]methoxy}cyclopropyl)-4-(2-cyclopropoxyphenyl)pyridine]
The EC50 of the first is higher: 126 to 1000 nM for the first, < 100 nM for the second.

First: CSc1ccc(Cl)c(CNC2(c3cnccc3-c3ccccc3OC3CC3)CC2)c1 [Compound I-23, N-{[2-chloro-5-(methylsulfanyl)phenyl]methyl}-1-[4-(2-cyclopropoxyphenyl)pyridin-3-yl]cyclopropan-1-amine]
Second: O=C(NCCCC(CO)c1ccc(Cl)c(CNC2(c3cnccc3-c3ccccc3OC3CC3)CC2)c1)NC[C@H](O)[C@@H](O)[C@H](O)[C@H](O)CO (stereo partly drawn) [Compound I-384, 1-(4-{4-chloro-3-[({1-[4-(2-cyclopropoxyphenyl)pyridin-3-yl]cyclopropyl}amino)methyl]phenyl}-5-hydroxypentyl)-3-[(2S,3R,4R,5R)-2,3,4,5,6-pentahydroxyhexyl]urea]
The EC50 of the first is lower: < 100 nM for the first, 126 to 1000 nM for the second.

Compared with `CS(=O)(=O)CCN(CCCCSc1ccc(Cl)c(COC2(c3cnccc3-c3ccccc3OC3CC3)CC2)c1)C(=O)[C@@H](O)[C@@H](O)[C@H](O)[C@@H](O)CO` [Compound I-559, (2S,3S,4R,5S)-N-(4-{[4-chloro-3-({1-[4-(2-cyclopropoxyphenyl)pyridin-3-yl]cyclopropoxy}methyl)phenyl]sulfanyl}butyl)-2,3,4,5,6-pentahydroxy-N-(2-methanesulfonylethyl)hexanamide], `O=C([C@@H](O)[C@@H](O)[C@H](O)[C@@H](O)CO)N(CCCCSc1ccc(Cl)c(COC2(c3cnccc3-c3ccccc3OC3CC3)CC2)c1)CCN1CCS(=O)(=O)CC1` [Compound I-524, (2S,3S,4R,5S)-N-(4-{[4-chloro-3-({1-[4-(2-cyclopropoxyphenyl)pyridin-3-yl]cyclopropoxy}methyl)phenyl]sulfanyl}butyl)-N-[2-(1,1-dioxo-1λ^6,4-thiomorpholin-4-yl)ethyl]-2,3,4,5,6-pentahydroxyhexanamide] is higher in EC50: < 100 nM for the first, 126 to 1000 nM for the second.

Compared with `Cc1ccc(C(C)CCCCNC(=O)NC[C@H](O)[C@@H](O)[C@H](O)[C@H](O)CO)cc1COC1(c2cnccc2-c2ccccc2OC2CC2)CC1` (stereo partly drawn) [Compound I-276, 1-{5-[3-({1-[4-(2-cyclopropoxyphenyl)pyridin-3-yl]cyclopropoxy}methyl)-4-methylphenyl]hexyl}-3-[(2S,3R,4R,5R)-2,3,4,5,6-pentahydroxyhexyl]urea], `O=C(NCCCCOc1ccc(Cl)c(COC2(c3cnccc3-c3ccccc3OC3CC3)CC2)c1)NC[C@H](O)[C@@H](O)[C@H](O)[C@H](O)CO` [Compound I-755, 1-(4-(4-chloro-3-((1-(4-(2-cyclopropoxyphenyl)pyridin-3-yl)cyclopropoxy)methyl)phenoxy)butyl)-3-((2S,3R,4R,5R)-2,3,4,5,6-pentahydroxyhexyl)urea] is higher in EC50: < 100 nM for the first, 126 to 1000 nM for the second.

`O=C(NCCCSc1ccc(Cl)c(COC2(c3cnccc3-c3ccccc3OC3CC3)CC2)c1)NC[C@H](O)[C@@H](O)[C@H](O)[C@H](O)CO` [Compound I-625, 1-(3-{[4-chloro-3-({1-[4-(2-cyclopropoxyphenyl)pyridin-3-yl]cyclopropoxy}methyl)phenyl]sulfanyl}propyl)-3-[(2S,3R,4R,5R)-2,3,4,5,6-pentahydroxyhexyl]urea] and `O=C(CN1CCC(NC(=O)NCCCCSc2ccc(Cl)c(COC3(c4cnccc4-c4ccccc4OC4CC4)CC3)c2)CC1)NC[C@H](O)[C@@H](O)[C@H](O)[C@H](O)CO` [Compound I-633, 2-(4-{[(4-{[4-chloro-3-({1-[4-(2-cyclopropoxyphenyl)pyridin-3-yl]cyclopropoxy}methyl)phenyl]sulfanyl}butyl)carbamoyl]amino}piperidin-1-yl)-N-[(2S,3R,4R,5R)-2,3,4,5,6-pentahydroxyhexyl]acetamide] cannot be ordered by EC50: < 100 nM for the first, < 100 nM for the second.

`COCCN(C[C@H](O)[C@@H](O)[C@H](O)[C@H](O)CO)C(=O)CCCSc1ccc(Cl)c(COC2(c3cnccc3-c3ccccc3OC3CC3)CC2)c1` [Compound I-664, 4-{[4-chloro-3-({1-[4-(2-cyclopropoxyphenyl)pyridin-3-yl]cyclopropoxy}methyl)phenyl]sulfanyl}-N-(2-methoxyethyl)-N-[(2S,3R,4R,5R)-2,3,4,5,6-pentahydroxyhexyl]butanamide] and `NC(=O)CN(C[C@H](O)[C@@H](O)[C@H](O)[C@H](O)CO)C(=O)CCCCc1cc(Cl)c(COC2(c3cnccc3-c3ccccc3OC3CC3)CC2)cc1Cl` (stereo in doubt) [Compound I-208, N-(carbamoylmethyl)-5-[2,5-dichloro-4-({1-[4-(2-cyclopropoxyphenyl)pyridin-3-yl]cyclopropoxy}methyl)phenyl]-N-[(2S,3R,4R,5R)-2,3,4,5,6-pentahydroxyhexyl]pentanamide] cannot be ordered by EC50: < 100 nM for the first, < 100 nM for the second.

First: O=C(NC[C@H](O)[C@@H](O)[C@H](O)[C@H](O)CO)NC1CCN(S(=O)(=O)c2ccc(Cl)c(COC3(c4cnccc4-c4ccccc4OC4CC4)CC3)c2)C1 (stereo partly drawn) [Compound I-429, 1-{l-[4-chloro-3-({1-[4-(2-cyclopropoxyphenyl)pyridin-3-yl]cyclopropoxy}methyl)benzenesulfonyl]pyrrolidin-3-yl}-3-[(2S,3R,4R,5R)-2,3,4,5,6-pentahydroxyhexyl]urea]
Second: N[C@@H](CCCCNS(=O)(=O)c1ccc(COC2(c3cnccc3-c3ccccc3OC3CC3)CC2)c(Cl)c1)C(=O)O [Compound I-484, (S)-2-amino-6-(3-chloro-4-((1-(4-(2-cyclopropoxyphenyl)pyridine-3-yl)cyclopropoxy)methyl)phenylsulfonamido)hexanoic acid]
The EC50 of the first is higher: 126 to 1000 nM for the first, < 100 nM for the second.

Compared with `CC(CCCC(=O)N(C)C[C@H](O)[C@@H](O)[C@H](O)[C@H](O)CO)c1cc(Cl)c(CNC2(c3cnccc3-c3ccccc3OC3CC3)CC2)cc1Cl` (stereo partly drawn) [Compound I-379, 5-{2,5-dichloro-4-[({1-[4-(2-cyclopropoxyphenyl)pyridin-3-yl]cyclopropyl}amino)methyl]phenyl}-N-methyl-N-[(2S,3R,4R,5R)-2,3,4,5,6-pentahydroxyhexyl]hexanamide], `Cc1ccc(C(C)CCCCNC(=O)[C@@H](O)[C@@H](O)[C@H](O)[C@@H](O)CO)cc1CNC1(c2cnccc2-c2ccccc2OC2CC2)CC1` (stereo partly drawn) [Compound I-300, (2S,3S,4R,5S)-N-(5-{3-[({1-[4-(2-cyclopropoxyphenyl)pyridin-3-yl]cyclopropyl}amino)methyl]-4-methylphenyl}hexyl)-2,3,4,5,6-pentahydroxyhexanamide] is lower in EC50: 126 to 1000 nM for the first, < 100 nM for the second.

For `Cc1ccc(SCCCN(C(=O)[C@@H](O)[C@@H](O)[C@H](O)[C@@H](O)CO)C2CCOCC2)cc1CNC1(c2cnccc2-c2ccccc2OC2CC2)CC1` [Compound I-547, (2S,3S,4R,5S)-N-[3-({3-[({1-[4-(2-cyclopropoxyphenyl)pyridin-3-yl]cyclopropyl}amino)methyl]-4-methylphenyl}sulfanyl)propyl]-2,3,4,5,6-pentahydroxy-N-(oxan-4-yl)hexanamide], the EC50 was 1260 to 10000 nM.

Reference: patent publication US12084472B2 (Ardelyx, Inc., priority 2015, dated 2024)
